Patent US20170217889A1, “4-SUBSTITUTED PYRIDINE-2,6-DICARBOXYLIC ACID DERIVATIVES AND METHOD OF PREPARING SAME” (Okinawa Institute of Science and Technology School …, priority 2014, published 2017)

Test: Cytotoxicity, K562 cell growth inhibition (Cell Counting Kit-8 / WST-8)
Type: cell-based
Conditions: human; K562 cells; 6-48 hrs incubation; WST-8 absorbance at 450 nm; read-out: Cytotoxic activity evaluated using K562 cells IC50
Procedure: K562 cells (American Type Culture Collection) were cultured in a culture medium containing 10% (v/v) fetal calf serum (FCS) (manufactures by Sigma) to logarithmic phase. The cells were seeded in 96-well microtiter plate at a density of 5000 cells/well in 100 μL cell culture medium and incubated at 37° C. and 5% CO2 in a humidified incubator overnight. The test compounds of various concentrations were added in a well at 10 fold concentration in 1/10 volume of medium without FCS. After 6-48 hrs incubation at 37° C. in the CO2 incubator, 10 uL solution of the viable cell counting reagent, Cell counting Kit-8 (5 mmol/L WST-8, 0.2 mmol/L 1-Methoxy PMS, 150 mmol/L NaCl) (manufactured by Dojindo) was added to each well, and reacted for 1 to 4 hours in the CO2 incubator. After the incubation, an absorbance of formazan, generated by reduction of WST-8, was determined at 450 nm using a microplate reader.
The assay readout is correlated with the viable cell numbers. Lower values correspond to high inhibition and greater values to low inhibition of the cell growth. To determine IC50 values (i.e. the concentration inhibiting the cell growth by 50%) of the compounds of formula I, several assays were made with a range of concentrations chosen empirically to give low, high and intermediate inhibition of the growth and determined using curve fitting software.

Row | SMILES | IC50 [µM]
1 | CCOC(=O)c1cc(-c2ccc(Br)cc2)cc(C(=O)OCC)n1 | 35
2 | CCOC(=O)c1cc(-c2ccc(Cl)cc2)cc(C(=O)OCC)n1 | 50
3 | CCOC(=O)c1cc(C2CCCCC2)cc(C(=O)OCC)n1 | 51
